One test concerns the target CDK2/CycE (Homo sapiens, UniProt P24941). The test is described as follows: CDK2/CycE kinase assay (TR-FRET, Method 2). For orientation: TR-FRET usually uses a lanthanide donor and a delayed reading to cut background.
Test [1] addresses T1, CDK9/CycT1 (Homo sapiens, UniProt P50750).
Experimental: CDK9/CycT1 High ATP Kinase Assay
CDK9/CycT1-inhibitory activity of compounds of the present invention at a high ATP concentration after preincubation of enzyme and test compounds was quantified employing the CDK9/CycT1 TR-FRET assay as described in the following paragraphs.
Recombinant full-length His-tagged human CDK9 and CycT1, expressed in insect cells and purified by Ni-NTA affinity chromatography, were purchase from Invitrogen (Cat. No PV4131). As substrate for the kinase reaction biotinylated peptide biotin-Ttds-[sequence]
For the assay 50 nl of a 100 fold concentrated solution of the test compound in DMSO was pipetted into a black low volume 384 well microtiter plate (Greiner Bio-One, Frickenhausen, Germany), 2 μl of a solution of CDK9/CycT1 in aqueous assay buffer [50 mM Tris/HCl pH 8.0, 10 mM MgCl2, 1.0 mM dithiothreitol, 0.1 mM sodium ortho-vanadate, 0.01% (v/v) Nonidet-P40 (Sigma)] were added and the mixture was incubated for 15 min at 22° C. to allow pre-binding of the test compounds to the enzyme before the start of the kinase reaction. Then the kinase reaction was started by the addition of 3 μl of a solution of adenosine-tri-phosphate (ATP, 3.3 mM=>final conc. in the 5 μl assay volume is 2 mM) and substrate (1.67 μM=>final conc. in the 5 μl assay volume is 1 μM) in assay buffer and the resulting mixture was incubated for a reaction time of 25 min at 22° C. The concentration of CDK9/CycT1 was adjusted depending of the activity of the enzyme lot and was chosen appropriate to have the assay in the linear range, typical concentrations were in the range of 0.5 μg/mL. The reaction was stopped by the addition of 5 μl of a solution of TR-FRET detection reagents (0.2 μM streptavidine-XL665 [Cisbio Bioassays, Codolet, France] and 1 nM anti-RB(pSer807/pSer811)-antibody from BD Pharmingen [#558389] and 1.2 nM LANCE EU-W1024 labeled anti-mouse IgG antibody [Perkin-Elmer, product no. AD0077]) in an aqueous EDTA-solution (100 mM EDTA, 0.2% (w/v) bovine serum albumin in 100 mM HEPES/NaOH pH 7.0).
(§2) The resulting mixture was incubated 1 h at 22° C. to allow the formation of complex between the phosphorylated biotinylated peptide and the detection reagents. Subsequently the amount of phosphorylated substrate was evaluated by measurement of the resonance energy transfer from the Eu-chelate to the streptavidine-XL. Therefore, the fluorescence emissions at 620 nm and 665 nm after excitation at 350 nm was measured in a HTRF reader, e.g. a Rubystar (BMG Labtechnologies, Offenburg, Germany) or a Viewlux (Perkin-Elmer). The ratio of the emissions at 665 nm and at 622 nm was taken as the measure for the amount of phosphorylated substrate.
The target in test [2] is T1, CDK9/CycT1. The test is described as follows: CDK9/CycT1 kinase assay (TR-FRET, Method 1a).
Text: CDK9/CycT1-inhibitory activity of compounds of the present invention was quantified employing the CDK9/CycT1 TR-FRET assay as described in the following paragraphs:
Recombinant full-length His-tagged human CDK9 and CycT1, expressed in insect cells and purified by Ni-NTA affinity chromatography, were purchased from Invitrogen (Cat. No PV4131). As substrate for the kinase reaction biotinylated peptide biotin-Ttds-[sequence] (C-terminus in amid form) was used which can be purchased e.g. form the company JERINI Peptide Technologies (Berlin, Germany).
For the assay 50 nl of a 100 fold concentrated solution of the test compound in DMSO was pipetted into a black low volume 384 well microtiter plate (Greiner Bio-One, Frickenhausen, Germany), 2 μl of a solution of CDK9/CycT1 in aqueous assay buffer [50 mM Tris/HCl pH 8.0, 10 mM MgCl2, 1.0 mM dithiothreitol, 0.1 mM sodium ortho-vanadate, 0.01% (v/v) Nonidet-P40 (Sigma)] were added and the mixture was incubated for 15 min at 22° C. to allow pre-binding of the test compounds to the enzyme before the start of the kinase reaction. Then the kinase reaction was started by the addition of 3 μl of a solution of adenosine-tri-phosphate (ATP, 16.7 μM=>final conc. in the 5 μl assay volume is 10 μM) and substrate (1.67 μM=>final conc. in the 5 μl assay volume is 1 μM) in assay buffer and the resulting mixture was incubated for a reaction time of 25 min at 22° C. The concentration of CDK9/CycT1 was adjusted depending of the activity of the enzyme lot and was chosen appropriate to have the assay in the linear range, typical concentrations were in the range of 1 μg/mL. The reaction was stopped by the addition of 5 μl of a solution of TR-FRET detection reagents (0.2 μM streptavidine-XL665 [Cisbio Bioassays, Codolet, France] and 1 nM anti-RB(pSer807/pSer811)-antibody from BD Pharmingen [#558389] and 1.2 nM LANCE EU-W1024 labeled anti-mouse IgG antibody [Perkin-Elmer, product no. AD0077]) in an aqueous EDTA-solution (100 mM EDTA, 0.2% (w/v) bovine serum albumin in 100 mM HEPES/NaOH pH 7.0).
as §2
For a further test, the system named is HeLa cells. The test is described as follows: Proliferation assay, HeLa. Type of test: cell-based. The following applies: Homo sapiens, 96 h, read-out: Inhibition of HeLa cell proliferation IC50. The protocol:
(§1) After 24 hours, the cells of one plate (zero-point plate) were stained with crystal violet (see below), while the medium of the other plates was replaced by fresh culture medium (200 μl), to which the test substances were added in various concentrations (0 μM, as well as in the range of 0.001-10 μM; the final concentration of the solvent dimethyl sulfoxide was 0.5%). The cells were incubated for 4 days in the presence of test substances. Cell proliferation was determined by staining the cells with crystal violet: the cells were fixed by adding 20 μl/measuring point of an 11% glutaric aldehyde solution for 15 minutes at room temperature. After three washing cycles of the fixed cells with water, the plates were dried at room temperature. The cells were stained by adding 100 μl/measuring point of a 0.1% crystal violet solution (pH 3.0). After three washing cycles of the stained cells with water, the plates were dried at room temperature. The dye was dissolved by adding 100 μl/measuring point of a 10% acetic acid solution. […] The change of cell number, in percent, was calculated by normalization of the measured values to the extinction values of the zero-point plate (=0%) and the extinction of the untreated (0 μm) cells (=100%).

The test system of the next test is NCI-H460 cells. The test is described as follows: Proliferation assay, NCI-H460. Type of test: cell-based. The following applies: Homo sapiens, read-out: Inhibition of NCI-H460 cell proliferation IC50. The protocol: as §1
In another test the test system is HeLa-MaTu-ADR cells. Briefly: Proliferation assay, HeLa-MaTu-ADR. The following applies: Homo sapiens, 96 h, read-out: Inhibition of HeLa-MaTu-ADR cell proliferation IC50. Type of test: cell-based. How it is done: as §1
The subject of the next test is Caco-2 cells. Briefly: Proliferation assay, Caco-2. Type of test: cell-based. The note with it: Homo sapiens, read-out: Inhibition of Caco-2 cell proliferation IC50. The protocol: as §1
Another test has as its system DU145 cells. Briefly: Proliferation assay, DU145. The format is cell-based. The note with it: Homo sapiens, DU-145, 96 h, read-out: Inhibition of DU145 cell proliferation IC50. The protocol:
as §1

A further test concerns B16F10 cells. The test is described as follows: Proliferation assay, B16F10. The format is cell-based. The note with it: Mus musculus, B16-F10, 96 h, read-out: Inhibition of B16F10 cell proliferation IC50. How it is done:
as §1

The mark [3] stands for this setting: 96 h, NCI-H460, 4 days, crystal violet.
[4] abbreviates: HeLa-MaTu-ADR, 4 days, crystal violet.
The mark [5] stands for this setting: 96 h, Caco-2, 4 days, crystal violet.

pIC50: −log10 of the molar value. Where two headings read alike, the source gives them in different places.

T1 sequence (P50750 whole entry): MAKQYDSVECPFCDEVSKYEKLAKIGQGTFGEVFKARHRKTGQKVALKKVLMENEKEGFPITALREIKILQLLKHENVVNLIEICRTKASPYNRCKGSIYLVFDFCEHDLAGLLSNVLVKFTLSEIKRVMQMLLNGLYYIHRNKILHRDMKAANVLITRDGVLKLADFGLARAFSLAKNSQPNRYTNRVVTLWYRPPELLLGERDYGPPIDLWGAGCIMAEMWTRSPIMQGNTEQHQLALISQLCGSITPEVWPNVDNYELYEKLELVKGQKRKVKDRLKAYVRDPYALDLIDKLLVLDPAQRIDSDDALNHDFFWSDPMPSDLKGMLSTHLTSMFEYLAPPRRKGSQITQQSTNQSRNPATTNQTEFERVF
T1 sequence (O60563 whole entry partner): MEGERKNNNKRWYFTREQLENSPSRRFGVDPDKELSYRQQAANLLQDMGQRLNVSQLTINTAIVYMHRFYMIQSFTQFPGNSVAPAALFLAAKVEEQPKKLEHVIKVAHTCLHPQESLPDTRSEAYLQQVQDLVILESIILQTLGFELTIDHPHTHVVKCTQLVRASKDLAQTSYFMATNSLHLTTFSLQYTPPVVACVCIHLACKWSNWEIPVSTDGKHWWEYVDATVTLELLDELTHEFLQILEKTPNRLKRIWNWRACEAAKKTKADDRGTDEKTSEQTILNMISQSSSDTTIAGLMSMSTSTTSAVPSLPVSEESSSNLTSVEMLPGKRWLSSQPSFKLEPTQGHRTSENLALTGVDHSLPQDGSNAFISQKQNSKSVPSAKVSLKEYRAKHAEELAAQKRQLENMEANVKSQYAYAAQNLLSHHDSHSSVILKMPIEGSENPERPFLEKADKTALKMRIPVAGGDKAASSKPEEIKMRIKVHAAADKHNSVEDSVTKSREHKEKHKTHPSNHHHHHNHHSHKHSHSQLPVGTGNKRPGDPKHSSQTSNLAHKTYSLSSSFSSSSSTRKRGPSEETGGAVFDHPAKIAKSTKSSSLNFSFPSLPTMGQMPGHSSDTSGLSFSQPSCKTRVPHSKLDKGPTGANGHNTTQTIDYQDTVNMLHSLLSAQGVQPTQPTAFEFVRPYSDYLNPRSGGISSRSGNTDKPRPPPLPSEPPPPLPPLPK
Text for CDK2/CycE: CDK2/CycE-inhibitory activity of compounds of the present invention was quantified employing the CDK2/CycE TR-FRET assay as described in the following paragraphs:
Recombinant fusion proteins of GST and human CDK2 and of GST and human CycE, expressed in insect cells (Sf9) and purified by Glutathion-Sepharose affinity chromatography, were purchased from ProQinase GmbH (Freiburg, Germany). As substrate for the kinase reaction biotinylated peptide biotin-Ttds-[sequence] (C-terminus in amid form) was used which can be purchased e.g. form the company JERINI Peptide Technologies (Berlin, Germany).
For the assay 50 nl of a 100 fold concentrated solution of the test compound in DMSO was pipetted into a black low volume 384 well microtiter plate (Greiner Bio-One, Frickenhausen, Germany), 2 μl of a solution of CDK2/CycE in aqueous assay buffer [50 mM Tris/HCl pH 8.0, 10 mM MgCl2, 1.0 mM dithiothreitol, 0.1 mM sodium ortho-vanadate, 0.01% (v/v) Nonidet-P40 (Sigma)] were added and the mixture was incubated for 15 min at 22° C. to allow pre-binding of the test compounds to the enzyme before the start of the kinase reaction. Then the kinase reaction was started by the addition of 3 μl of a solution of adenosine-tri-phosphate (ATP, 16.7 μM=>final conc. in the 5 μl assay volume is 10 μM) and substrate (1.25 μM=>final conc. in the 5 μl assay volume is 0.75 μM) in assay buffer and the resulting mixture was incubated for a reaction time of 25 min at 22° C. The concentration of CDK2/CycE was adjusted depending of the activity of the enzyme lot and was chosen appropriate to have the assay in the linear range, typical concentrations were in the range of 130 ng/mL. The reaction was stopped by the addition of 5 μl of a solution of TR-FRET detection reagents (0.2 μM streptavidine-XL665 [Cisbio Bioassays, Codolet, France] and 1 nM anti-RB(pSer807/pSer811)-antibody from BD Pharmingen [#558389] and 1.2 nM LANCE EU-W1024 labeled anti-mouse IgG antibody [Perkin-Elmer, product no. AD0077]) in an aqueous EDTA-solution (100 mM EDTA, 0.2% (w/v) bovine serum albumin in 100 mM HEPES/NaOH pH 7.0).
The resulting mixture was incubated 1 h at 22° C. to allow the formation of complex between the phosphorylated biotinylated peptide and the detection reagents. Subsequently the amount of phosphorylated substrate was evaluated by measurement of the resonance energy transfer from the Eu-chelate to the streptavidine-XL. Therefore, the fluorescence emissions at 620 nm and 665 nm after excitation at 350 nm was measured in a TR-FRET reader, e.g. a Rubystar (BMG Labtechnologies, Offenburg, Germany) or a Viewlux (Perkin-Elmer). The ratio of the emissions at 665 nm and at 622 nm was taken as the measure for the amount of phosphorylated substrate.

Take `O=S(=O)(Cc1cccc(Nc2ncc(F)c(-c3ccc(F)cc3OCc3ccccc3)n2)c1)C1CCCCC1` [Example 6, 4-[2-(Benzyloxy)-4-fluorophenyl]-N-{3-[(cyclohexylsulfonyl)methyl]phenyl}-5-fluoropyrimidin-2-amine]: the figures for the pIC50 at CDK2/CycE, against CDK9/CycT1 [1] and at CDK9/CycT1 [2] were at most 4.70, 7.01 and 7.29, respectively.
Turning to `COc1cc(F)ccc1-c1nc(Nc2cccc(CS(=O)(=O)C3CC3)c2)ncc1F` [Example 14, N-{3-[(Cyclopropylsulfonyl)methyl]phenyl}-5-fluoro-4-(4-fluoro-2-methoxyphenyl)pyrimidin-2-amine], the pIC50 against CDK2/CycE is 6.11; against CDK9/CycT1 [1] it was 7.40; on CDK9/CycT1 [2], 8.10; in the test with HeLa cells (4 days, crystal violet), 6.17.
For `COc1cc(F)ccc1-c1nc(Nc2cccc(CS(=O)(=O)Cc3ccccc3)c2)ncc1F` [Example 15, N-{3-[(Benzylsulfonyl)methyl]phenyl}-5-fluoro-4-(4-fluoro-2-methoxyphenyl)-pyrimidin-2-amine] the same measures were 5.96, 7.08, 8.00 and 5.74.
As to `CC(C)(C)S(=O)(=O)Cc1cccc(Nc2ncc(F)c(-c3ccc(F)cc3OCc3ccccc3)n2)c1` [Example 4, 4-[2-(Benzyloxy)-4-fluorophenyl]-N-{3-[(tert-butylsulfonyl)methyl]phenyl}-5-fluoropyrimidin-2-amine], the values for the pIC50 against CDK2/CycE, at CDK9/CycT1 [1] and against CDK9/CycT1 [2] were 5.51, 7.10 and 7.54, respectively.
As for `COc1cc(F)ccc1-c1nc(Nc2cccc(CS(=O)(=O)CCO)c2)ncc1F` [Example 8, 2-[(3-{[5-Fluoro-4-(4-fluoro-2-methoxyphenyl)pyrimidin-2-yl]amino}benzyl)sulfonyl]ethanol], the pIC50 was 6.15 with NCI-H460 cells (setting [3]); 6.51 at CDK2/CycE; 6.99 against CDK9/CycT1 [1]; 6.42 with HeLa-MaTu-ADR cells (setting [4]); 6.15 with Caco-2 cells (setting [5]); 8.05 on CDK9/CycT1 [2]. Further, the pIC50 with HeLa cells (4 days, crystal violet) is 6.00; with DU145 cells (DU145, 4 days, crystal violet), 6.19; with B16F10 cells (B16F10, 4 days, crystal violet), 6.02.
For the molecule `COc1cc(F)ccc1-c1nc(Nc2cccc(CS(=O)(=O)C(C)C)c2)ncc1F` [Example 7, 5-Fluoro-4-(4-fluoro-2-methoxyphenyl)-N-{3-[(propan-2-ylsulfonyl)methyl]phenyl}pyrimidin-2-amine], the pIC50 at CDK2/CycE was 6.29; in the test with HeLa cells (4 days, crystal violet), 5.96.
In the case of `COCCS(=O)(=O)Cc1cccc(Nc2ncc(F)c(-c3ccc(F)cc3OCc3ccccc3)n2)c1` [Example 3, 4-[2-(Benzyloxy)-4-fluorophenyl]-5-fluoro-N-(3-{[(2-methoxyethyl)sulfonyl]methyl}phenyl)pyrimidin-2-amine], the pIC50 was 5.92 in the test on NCI-H460 cells (setting [3]); 5.92 on CDK2/CycE; 8.00 at CDK9/CycT1 [1]; 6.00 with HeLa-MaTu-ADR cells (setting [4]); 5.96 with Caco-2 cells (setting [5]); 8.00 against CDK9/CycT1 [2]. For the same molecule, the pIC50 was 5.92 with HeLa cells (4 days, crystal violet); 5.89 with DU145 cells (DU145, 4 days, crystal violet); 5.92 with B16F10 cells (B16F10, 4 days, crystal violet).
For `CS(=O)(=O)Cc1cccc(Nc2ncc(F)c(-c3cccc4c3OCCO4)n2)c1` [Example 13, 4-(2,3-Dihydro-1,4-benzodioxin-5-yl)-5-fluoro-N-{3-[(methylsulfonyl)methyl]phenyl}pyrimidin-2-amine], the pIC50 with NCI-H460 cells (NCI-H460, 96 h) is 6.47; on CDK2/CycE, 6.92; against CDK9/CycT1 [1] it was 8.30; in the test with HeLa-MaTu-ADR cells, 6.72; in the test with Caco-2 cells (Caco-2, 96 h), 6.66; against CDK9/CycT1 [2] it was 8.22. Further, the pIC50 in the test on HeLa cells was 6.68; with DU145 cells it was 6.51; in the test with B16F10 cells it was 6.29.
In the case of `O=S(=O)(Cc1cccc(Nc2ncc(F)c(-c3cccc4c3OCCC4)n2)c1)C1CC1` [Example 10, N-{3-[(Cyclopropylsulfonyl)methyl]phenyl}-4-(3,4-dihydro-2H-chromen-8-yl)-5-fluoropyrimidin-2-amine], the pIC50 on CDK2/CycE is 6.68; in the test with HeLa cells (4 days, crystal violet), 5.96.
As for `CS(=O)(=O)Cc1cccc(Nc2ncc(F)c(-c3ccc(F)cc3OCc3cccnc3)n2)c1` [Example 16, 5-Fluoro-4-[4-fluoro-2-(pyridin-3-ylmethoxy)phenyl]-N-{3-[(methylsulfonyl)methyl]phenyl}pyrimidin-2-amine], the pIC50 with NCI-H460 cells (setting [3]) was 6.49; on CDK2/CycE, 6.09; at CDK9/CycT1 [1], 7.72; in the test with HeLa-MaTu-ADR cells (setting [4]), 6.46; with Caco-2 cells (setting [5]), 6.36; against CDK9/CycT1 [2], 8.10. Further, the pIC50 in the test with HeLa cells (4 days, crystal violet) was 6.42; in the test with DU145 cells (DU145, 4 days, crystal violet), 6.52; in the test with B16F10 cells (B16F10, 4 days, crystal violet) it was 6.39.
For the molecule `CS(=O)(=O)Cc1cccc(Nc2ncc(F)c(-c3cccc4c3OCCC4)n2)c1` [Example 9, 4-(3,4-Dihydro-2H-chromen-8-yl)-5-fluoro-N-{3-[(methylsulfonyl)methyl]phenyl}pyrimidin-2-amine], the pIC50 is 6.47 in the test with NCI-H460 cells (setting [3]); 6.52 against CDK2/CycE; 6.70 in the test on HeLa-MaTu-ADR cells (setting [4]); 6.57 in the test on Caco-2 cells (setting [5]); 6.44 with HeLa cells (4 days, crystal violet); 6.49 in the test on DU145 cells (DU145, 4 days, crystal violet). Also, in the test with B16F10 cells (B16F10, 4 days, crystal violet), the pIC50 was 6.47.
As for `CS(=O)(=O)Cc1cc(F)cc(Nc2ncc(F)c(-c3ccc(F)cc3OCc3ccccc3)n2)c1` [Example 11, 4-[2-(Benzyloxy)-4-fluorophenyl]-5-fluoro-N-{3-fluoro-5-[(methylsulfonyl)methyl]phenyl}pyrimidin-2-amine], the pIC50 against CDK2/CycE was 5.96; in the test with HeLa cells (4 days, crystal violet), 6.00.
Regarding `CS(=O)(=O)Cc1cccc(Nc2ncc(F)c(-c3ccc(F)cc3OCc3ccccc3)n2)c1` [Example 2, 4-[2-(Benzyloxy)-4-fluorophenyl]-5-fluoro-N-{3-[(methylsulfonyl)methyl]phenyl}pyrimidin-2-amine], the pIC50 with NCI-H460 cells (setting [3]) is 6.43; on CDK2/CycE, 6.08; at CDK9/CycT1 [1], 8.10; in the test on HeLa-MaTu-ADR cells (setting [4]) it was 6.52; in the test on Caco-2 cells (setting [5]), 6.31; on CDK9/CycT1 [2], 8.10. In addition, the pIC50 in the test on HeLa cells (4 days, crystal violet) was 6.46; in the test with DU145 cells (DU145, 4 days, crystal violet), 6.39; with B16F10 cells (B16F10, 4 days, crystal violet), 6.09.
With `CC(C)S(=O)(=O)Cc1cccc(Nc2ncc(F)c(-c3ccc(F)cc3OCc3ccccc3)n2)c1` [Example 5, 4-[2-(Benzyloxy)-4-fluorophenyl]-5-fluoro-N-{3-[(propan-2-ylsulfonyl)methyl]phenyl}pyrimidin-2-amine], the pIC50 at CDK2/CycE was 5.80; at CDK9/CycT1 [1], 7.70; on CDK9/CycT1 [2] it was 7.85.

For the origin of these results see patent US9108926B2, “Disubstituted 5-fluoro-pyrimidines” (Bayer Intellectual Property GmbH, priority 2011, dated 2015).
